The values that follow come from the supplement of paper PMC10307832.

What all share (test): relative viability (nuclei count vs DMSO), 5 days (fraction); higher = more cells survive
Compound in the test “AZD8055 + Lapatinib”: COc1ccc(-c2ccc3c(N4CCOC[C@@H]4C)nc(N4CCOC[C@@H]4C)nc3n2)cc1CO [AZD8055] + CS(=O)(=O)CCNCc1ccc(-c2ccc3ncnc(Nc4ccc(OCc5cccc(F)c5)c(Cl)c4)c3c2)o1 [Lapatinib] (partner 2 µM)
The method in brief: (§1)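 Lung cancer cell lines, seeded in 1536-well plates, were treated the following day by pin tool with a single drug or with five library-drug doses (not always all listed) in √10 steps on top of a fixed anchor-drug dose. Cells were fixed and nuclei stained in one step after 5 days, and nuclei were counted. Relative viability is the nuclei count for treated wells divided by that for vehicle wells, reported as medians of duplicate plates.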

Compound in the test “AZD8055 + Olaparib”: COc1ccc(-c2ccc3c(N4CCOC[C@@H]4C)nc(N4CCOC[C@@H]4C)nc3n2)cc1CO [AZD8055] + O=C(c1cc(Cc2n[nH]c(=O)c3ccccc23)ccc1F)N1CCN(C(=O)C2CC2)CC1 [Olaparib] (partner 8 µM)
The method in brief: as §1

Compound in the test “AZD8055 + Luminespib”: COc1ccc(-c2ccc3c(N4CCOC[C@@H]4C)nc(N4CCOC[C@@H]4C)nc3n2)cc1CO [AZD8055] + CCNC(=O)c1noc(-c2cc(C(C)C)c(O)cc2O)c1-c1ccc(CN2CCOCC2)cc1 [Luminespib] (partner 0.01 µM)
The method in brief:
as §1

Compound in the test “AZD8055 + Decitabine”: COc1ccc(-c2ccc3c(N4CCOC[C@@H]4C)nc(N4CCOC[C@@H]4C)nc3n2)cc1CO [AZD8055] + Nc1ncn([C@H]2C[C@H](O)[C@@H](CO)O2)c(=O)n1 [Decitabine] (partner 2 µM)
The method in brief: as §1

On to IA-LM, for which the relative viability in the test with AZD8055 + Lapatinib (first compound 0.01 µM) was 0.802; with AZD8055 + Lapatinib (first compound 0.03162 µM), 0.319; with AZD8055 + Lapatinib (first compound 0.1 µM), 0.216; in the test with AZD8055 + Lapatinib (first compound 0.3162 µM) it was 0.132; in the test with AZD8055 + Lapatinib (first compound 1 µM), 0.112; with AZD8055 + Olaparib (first compound 0.01 µM), 0.8. Further, the relative viability with AZD8055 + Olaparib (first compound 0.03162 µM) came out at 0.823; in the test with AZD8055 + Olaparib (first compound 0.1 µM) it was 0.551; in the test with AZD8055 + Olaparib (first compound 0.3162 µM), 0.302; with AZD8055 + Olaparib (first compound 1 µM) it was 0.114.
Consider EKVX, for which the relative viability with AZD8055 + Luminespib (first compound 0.01 µM) was determined as 0.949; with AZD8055 + Luminespib (first compound 0.03162 µM) it was 0.866; in the test with AZD8055 + Luminespib (first compound 0.1 µM), 0.655; with AZD8055 + Luminespib (first compound 0.3162 µM), 0.355; with AZD8055 + Luminespib (first compound 1 µM), 0.248; with AZD8055 + Lapatinib (first compound 0.01 µM) it was 0.193. Also, the relative viability with AZD8055 + Lapatinib (first compound 0.03162 µM) was 0.181; with AZD8055 + Lapatinib (first compound 0.1 µM), 0.155; in the test with AZD8055 + Lapatinib (first compound 0.3162 µM), 0.132; with AZD8055 + Lapatinib (first compound 1 µM), 0.132; in the test with AZD8055 + Decitabine (first compound 0.01 µM), 0.361; with AZD8055 + Decitabine (first compound 0.03162 µM), 0.286. Moreover, the relative viability with AZD8055 + Decitabine (first compound 0.1 µM) was determined as 0.298; with AZD8055 + Decitabine (first compound 0.3162 µM), 0.251; with AZD8055 + Decitabine (first compound 1 µM), 0.26; with AZD8055 + Olaparib (first compound 0.01 µM), 1; in the test with AZD8055 + Olaparib (first compound 0.03162 µM), 1.01; in the test with AZD8055 + Olaparib (first compound 0.1 µM) it was 0.666. For the same cell line, the relative viability was determined as 0.413 in the test with AZD8055 + Olaparib (first compound 0.3162 µM) and 0.311 with AZD8055 + Olaparib (first compound 1 µM).
Take ChaGo-K-1: the relative viability with AZD8055 + Luminespib (first compound 0.01 µM) stood at 0.611; with AZD8055 + Luminespib (first compound 0.03162 µM) it was 0.604; with AZD8055 + Luminespib (first compound 0.1 µM) it was 0.533; with AZD8055 + Luminespib (first compound 0.3162 µM) it was 0.423; in the test with AZD8055 + Luminespib (first compound 1 µM) it was 0.297; in the test with AZD8055 + Decitabine (first compound 0.01 µM), 0.506. Further, the relative viability with AZD8055 + Decitabine (first compound 0.03162 µM) stood at 0.425; in the test with AZD8055 + Decitabine (first compound 0.1 µM) it was 0.528; in the test with AZD8055 + Decitabine (first compound 0.3162 µM) it was 0.494; with AZD8055 + Decitabine (first compound 1 µM), 0.441; with AZD8055 + Olaparib (first compound 0.01 µM) it was 0.457; in the test with AZD8055 + Olaparib (first compound 0.03162 µM), 0.48. Moreover, the relative viability was found to be 0.456 with AZD8055 + Olaparib (first compound 0.1 µM), 0.437 in the test with AZD8055 + Olaparib (first compound 0.3162 µM) and 0.395 in the test with AZD8055 + Olaparib (first compound 1 µM).
Regarding NCI-H1755, the relative viability with AZD8055 + Luminespib (first compound 0.01 µM) was found to be 0.43; with AZD8055 + Luminespib (first compound 0.03162 µM) it was 0.417; with AZD8055 + Luminespib (first compound 0.1 µM), 0.361; with AZD8055 + Luminespib (first compound 0.3162 µM), 0.263; with AZD8055 + Luminespib (first compound 1 µM) it was 0.251; in the test with AZD8055 + Lapatinib (first compound 0.01 µM), 1.07. The relative viability was determined as 0.815 with AZD8055 + Lapatinib (first compound 0.03162 µM); 0.935 in the test with AZD8055 + Lapatinib (first compound 0.1 µM); 0.565 with AZD8055 + Lapatinib (first compound 0.3162 µM); 0.457 with AZD8055 + Lapatinib (first compound 1 µM); 0.714 with AZD8055 + Decitabine (first compound 0.01 µM); 0.636 with AZD8055 + Decitabine (first compound 0.03162 µM). Also, the relative viability with AZD8055 + Decitabine (first compound 0.1 µM) was found to be 0.691; in the test with AZD8055 + Decitabine (first compound 0.3162 µM), 0.506; with AZD8055 + Decitabine (first compound 1 µM), 0.461; with AZD8055 + Olaparib (first compound 0.01 µM), 0.767; with AZD8055 + Olaparib (first compound 0.03162 µM) it was 0.765; with AZD8055 + Olaparib (first compound 0.1 µM), 0.677. The relative viability with AZD8055 + Olaparib (first compound 0.3162 µM) amounted to 0.446; with AZD8055 + Olaparib (first compound 1 µM), 0.378.
With NCI-H2228, the relative viability with AZD8055 + Luminespib (first compound 0.01 µM) is 0.137; with AZD8055 + Luminespib (first compound 0.03162 µM) it was 0.11; with AZD8055 + Luminespib (first compound 0.1 µM) it was 0.104; with AZD8055 + Luminespib (first compound 0.3162 µM), 0.15; in the test with AZD8055 + Luminespib (first compound 1 µM), 0.144; with AZD8055 + Lapatinib (first compound 0.01 µM), 1.01. Moreover, the relative viability with AZD8055 + Lapatinib (first compound 0.03162 µM) came to 0.709; with AZD8055 + Lapatinib (first compound 0.1 µM), 0.338; in the test with AZD8055 + Lapatinib (first compound 0.3162 µM), 0.219; in the test with AZD8055 + Lapatinib (first compound 1 µM), 0.261; in the test with AZD8055 + Olaparib (first compound 0.01 µM), 0.763; in the test with AZD8055 + Olaparib (first compound 0.03162 µM), 0.432. Also, the relative viability with AZD8055 + Olaparib (first compound 0.1 µM) turned out to be 0.217; in the test with AZD8055 + Olaparib (first compound 0.3162 µM), 0.187; with AZD8055 + Olaparib (first compound 1 µM), 0.228.
